Results from publication PMC4917279 (Journal of Medicinal Chemistry, 2016).

What was measured:
Assay in all cases: KINOMEscan
Type in all cases: binding
Details in all cases: read-out: %Ctrl @ 1000 nM
[1] = biological target: T1, LATS2 (Homo sapiens, UniProt Q9NRM7)
T1 construct: purchased DiscoveRx KINOMEscan

[2] = biological target: T2, RET (Homo sapiens, UniProt P07949)
T2 construct: purchased DiscoveRx KINOMEscan

[3] = biological target: T3, PFTK1 (Homo sapiens, UniProt O94921)
T3 construct: purchased DiscoveRx KINOMEscan

[4] = biological target: T4, NEK10 (Homo sapiens, UniProt Q6ZWH5)
T4 construct: purchased DiscoveRx KINOMEscan

[5] = biological target: T5, TSSK1B (Homo sapiens, UniProt Q9BXA7)
T5 construct: purchased DiscoveRx KINOMEscan

[6] = biological target: T6, VEGFR2 (Homo sapiens, UniProt P35968)
T6 construct: purchased DiscoveRx KINOMEscan

[7] = biological target: T7, SRMS (Homo sapiens, UniProt Q9H3Y6)
T7 construct: purchased DiscoveRx KINOMEscan

[8] = biological target: T8, CASK (Homo sapiens, UniProt O14936)
T8 construct: purchased DiscoveRx KINOMEscan

[9] = biological target: T9, RIOK3 (Homo sapiens, UniProt O14730)
T9 construct: purchased DiscoveRx KINOMEscan

[10] = biological target: T10, DRAK2 (Homo sapiens, UniProt O94768)
T10 construct: purchased DiscoveRx KINOMEscan

[11] = biological target: T11, CAMK1D (Homo sapiens, UniProt Q8IU85)
T11 construct: purchased DiscoveRx KINOMEscan

[12] = biological target: T12, CAMK2D (Homo sapiens, UniProt Q13557)
T12 construct: purchased DiscoveRx KINOMEscan

[13] = biological target: T13, SIK (Homo sapiens, UniProt P57059)
T13 construct: purchased DiscoveRx KINOMEscan

[14] = biological target: T14, NEK11 (Homo sapiens, UniProt Q8NG66)
T14 construct: purchased DiscoveRx KINOMEscan

[15] = biological target: T15, TNNI3K (Homo sapiens, UniProt Q59H18)
T15 construct: purchased DiscoveRx KINOMEscan

[16] = biological target: T16, MAPKAPK2 (Homo sapiens, UniProt P49137)
T16 construct: purchased DiscoveRx KINOMEscan

[17] = biological target: T17, NEK5 (Homo sapiens, UniProt Q6P3R8)
T17 construct: purchased DiscoveRx KINOMEscan

[18] = biological target: T18, NDR2 (Homo sapiens, UniProt Q9Y2H1)
T18 construct: purchased DiscoveRx KINOMEscan

[19] = biological target: T19, DYRK2 (Homo sapiens, UniProt Q92630)
T19 construct: purchased DiscoveRx KINOMEscan

[20] = biological target: T20, NEK2 (Homo sapiens, UniProt P51955)
T20 construct: purchased DiscoveRx KINOMEscan

[21] = biological target: T21, ABL1(F317L)-phosphorylated (Homo sapiens, UniProt P00519, F317L)
T21 construct: purchased DiscoveRx (KINOMEscan service)

[22] = biological target: T22, MST1R (Homo sapiens, UniProt Q04912)
T22 construct: purchased DiscoveRx KINOMEscan

[23] = biological target: T23, TNK1 (Homo sapiens, UniProt Q13470)
T23 construct: purchased DiscoveRx KINOMEscan

[24] = biological target: T24, EGFR(S752-I759del) (Homo sapiens, UniProt P00533, DEL752-759)
T24 construct: purchased DiscoveRx KINOMEscan

[25] = biological target: T25, EPHB3 (Homo sapiens, UniProt P54753)
T25 construct: purchased DiscoveRx KINOMEscan

[26] = biological target: T26, MLCK (Homo sapiens, UniProt Q32MK0)
T26 construct: purchased DiscoveRx KINOMEscan

[27] = biological target: T27, TAK1 (Homo sapiens, UniProt O43318)
T27 construct: purchased DiscoveRx KINOMEscan

[28] = biological target: T28, PDGFRA (Homo sapiens, UniProt P16234)
T28 construct: purchased DiscoveRx KINOMEscan

[29] = biological target: T29, JAK1(JH2domain-pseudokinase) (Homo sapiens, UniProt P23458)
T29 construct: JAK1(JH2domain-pseudokinase); purchased DiscoveRx KINOMEscan

[30] = biological target: T30, RIOK2 (Homo sapiens, UniProt Q9BVS4)
T30 construct: purchased DiscoveRx KINOMEscan

[31] = biological target: T31, MAP3K2 (Homo sapiens, UniProt Q9Y2U5)
T31 construct: purchased DiscoveRx KINOMEscan

[32] = biological target: T32, IRAK3 (Homo sapiens, UniProt Q9Y616)
T32 construct: purchased DiscoveRx KINOMEscan

[33] = biological target: T33, WEE2 (Homo sapiens, UniProt P0C1S8)
T33 construct: purchased DiscoveRx KINOMEscan

[34] = biological target: T34, MARK4 (Homo sapiens, UniProt Q96L34)
T34 construct: purchased DiscoveRx KINOMEscan

[35] = biological target: T35, TAOK3 (Homo sapiens, UniProt Q9H2K8)
T35 construct: purchased DiscoveRx KINOMEscan

[36] = biological target: T36, MAK (Homo sapiens, UniProt P20794)
T36 construct: purchased DiscoveRx KINOMEscan

[37] = biological target: T37, SGK3 (Homo sapiens, UniProt Q96BR1)
T37 construct: purchased DiscoveRx KINOMEscan

[38] = biological target: T38, NEK3 (Homo sapiens, UniProt P51956)
T38 construct: purchased DiscoveRx KINOMEscan

[39] = biological target: T39, KIT(A829P) (Homo sapiens, UniProt P10721, A829P)
T39 construct: purchased DiscoveRx KINOMEscan

[40] = biological target: T40, PAK7 (Homo sapiens, UniProt Q9P286)
T40 construct: purchased DiscoveRx KINOMEscan

[41] = biological target: T41, TEC (Homo sapiens, UniProt P42680)
T41 construct: purchased DiscoveRx KINOMEscan

[42] = biological target: T42, PAK4 (Homo sapiens, UniProt O96013)
T42 construct: purchased DiscoveRx KINOMEscan

[43] = biological target: T43, PIK3CB (Homo sapiens, UniProt P42338)
T43 construct: purchased DiscoveRx KINOMEscan

[44] = biological target: T44, AKT2 (Homo sapiens, UniProt P31751)
T44 construct: purchased DiscoveRx KINOMEscan

T39 sequence (P10721 26-976 A829P): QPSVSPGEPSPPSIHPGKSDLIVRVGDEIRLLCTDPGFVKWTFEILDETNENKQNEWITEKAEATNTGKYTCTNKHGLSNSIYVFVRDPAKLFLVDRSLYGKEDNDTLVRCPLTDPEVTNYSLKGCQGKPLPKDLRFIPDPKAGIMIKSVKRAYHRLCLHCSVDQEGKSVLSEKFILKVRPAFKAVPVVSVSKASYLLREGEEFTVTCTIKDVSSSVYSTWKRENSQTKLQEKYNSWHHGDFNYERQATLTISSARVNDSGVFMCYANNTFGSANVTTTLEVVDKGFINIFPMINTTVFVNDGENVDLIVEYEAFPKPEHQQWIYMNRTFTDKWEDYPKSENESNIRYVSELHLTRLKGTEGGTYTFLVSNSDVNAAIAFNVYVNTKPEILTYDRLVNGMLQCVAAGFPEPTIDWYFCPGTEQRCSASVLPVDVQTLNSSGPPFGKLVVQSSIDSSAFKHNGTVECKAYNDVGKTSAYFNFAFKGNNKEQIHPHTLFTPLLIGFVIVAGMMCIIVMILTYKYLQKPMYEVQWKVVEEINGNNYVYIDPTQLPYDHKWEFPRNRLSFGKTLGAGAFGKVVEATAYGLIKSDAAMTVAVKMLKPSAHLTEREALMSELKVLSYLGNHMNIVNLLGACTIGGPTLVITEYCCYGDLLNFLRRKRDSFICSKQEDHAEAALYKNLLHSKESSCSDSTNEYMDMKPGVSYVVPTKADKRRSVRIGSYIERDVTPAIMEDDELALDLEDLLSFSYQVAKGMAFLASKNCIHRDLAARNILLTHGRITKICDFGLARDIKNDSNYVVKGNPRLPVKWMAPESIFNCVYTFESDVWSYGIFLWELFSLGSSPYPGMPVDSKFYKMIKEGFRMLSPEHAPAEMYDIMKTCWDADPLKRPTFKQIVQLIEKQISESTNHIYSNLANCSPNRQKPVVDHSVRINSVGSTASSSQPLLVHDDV
T15 sequence (Q59H18 whole entry): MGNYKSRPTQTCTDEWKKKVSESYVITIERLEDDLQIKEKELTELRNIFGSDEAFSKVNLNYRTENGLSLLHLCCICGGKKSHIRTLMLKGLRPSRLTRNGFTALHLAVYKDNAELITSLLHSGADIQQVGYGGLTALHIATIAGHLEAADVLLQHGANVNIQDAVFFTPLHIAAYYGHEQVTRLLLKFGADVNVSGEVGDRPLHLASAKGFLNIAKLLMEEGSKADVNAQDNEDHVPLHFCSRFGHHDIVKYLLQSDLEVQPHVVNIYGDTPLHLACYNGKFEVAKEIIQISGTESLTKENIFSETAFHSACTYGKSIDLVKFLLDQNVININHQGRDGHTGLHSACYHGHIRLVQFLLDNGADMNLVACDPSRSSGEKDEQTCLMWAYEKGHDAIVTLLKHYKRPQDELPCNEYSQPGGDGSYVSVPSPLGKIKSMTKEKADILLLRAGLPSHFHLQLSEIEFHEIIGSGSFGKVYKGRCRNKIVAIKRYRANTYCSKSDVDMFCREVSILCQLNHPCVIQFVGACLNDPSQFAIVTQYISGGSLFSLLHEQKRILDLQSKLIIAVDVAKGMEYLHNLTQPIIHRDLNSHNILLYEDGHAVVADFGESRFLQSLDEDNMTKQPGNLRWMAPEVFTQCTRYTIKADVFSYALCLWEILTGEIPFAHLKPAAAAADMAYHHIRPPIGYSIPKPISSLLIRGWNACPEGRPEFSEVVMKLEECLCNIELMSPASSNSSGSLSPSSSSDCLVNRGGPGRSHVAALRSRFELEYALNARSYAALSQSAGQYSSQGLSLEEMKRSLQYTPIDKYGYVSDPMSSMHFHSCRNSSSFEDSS
T2 sequence (P07949 29-1114): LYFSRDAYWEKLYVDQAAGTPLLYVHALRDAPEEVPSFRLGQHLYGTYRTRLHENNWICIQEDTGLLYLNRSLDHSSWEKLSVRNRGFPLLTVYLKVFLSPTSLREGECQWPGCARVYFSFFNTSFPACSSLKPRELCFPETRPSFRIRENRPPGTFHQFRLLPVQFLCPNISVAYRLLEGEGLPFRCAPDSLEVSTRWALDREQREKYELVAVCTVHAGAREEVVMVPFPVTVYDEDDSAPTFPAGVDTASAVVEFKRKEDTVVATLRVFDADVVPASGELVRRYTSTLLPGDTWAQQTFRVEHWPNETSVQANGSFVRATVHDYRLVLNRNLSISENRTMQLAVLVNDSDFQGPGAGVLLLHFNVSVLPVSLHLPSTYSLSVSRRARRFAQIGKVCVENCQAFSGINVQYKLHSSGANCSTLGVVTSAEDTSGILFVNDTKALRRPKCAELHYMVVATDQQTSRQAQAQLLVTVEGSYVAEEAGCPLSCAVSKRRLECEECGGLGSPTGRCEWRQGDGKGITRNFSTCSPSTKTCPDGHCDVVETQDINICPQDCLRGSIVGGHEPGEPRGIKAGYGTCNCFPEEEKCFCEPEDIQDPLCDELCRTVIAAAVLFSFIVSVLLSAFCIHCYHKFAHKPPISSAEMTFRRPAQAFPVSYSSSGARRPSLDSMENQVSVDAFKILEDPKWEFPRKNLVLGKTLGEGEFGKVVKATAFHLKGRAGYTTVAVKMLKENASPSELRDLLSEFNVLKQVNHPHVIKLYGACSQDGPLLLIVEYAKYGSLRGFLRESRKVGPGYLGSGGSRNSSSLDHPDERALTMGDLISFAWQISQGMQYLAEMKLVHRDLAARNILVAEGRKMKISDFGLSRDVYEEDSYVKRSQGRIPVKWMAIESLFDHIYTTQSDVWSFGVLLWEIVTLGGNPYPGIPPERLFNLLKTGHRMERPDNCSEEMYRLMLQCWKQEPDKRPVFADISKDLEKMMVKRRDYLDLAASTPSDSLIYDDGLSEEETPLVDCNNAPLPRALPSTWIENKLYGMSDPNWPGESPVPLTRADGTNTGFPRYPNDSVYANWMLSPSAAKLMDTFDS
T8 sequence (O14936 whole entry): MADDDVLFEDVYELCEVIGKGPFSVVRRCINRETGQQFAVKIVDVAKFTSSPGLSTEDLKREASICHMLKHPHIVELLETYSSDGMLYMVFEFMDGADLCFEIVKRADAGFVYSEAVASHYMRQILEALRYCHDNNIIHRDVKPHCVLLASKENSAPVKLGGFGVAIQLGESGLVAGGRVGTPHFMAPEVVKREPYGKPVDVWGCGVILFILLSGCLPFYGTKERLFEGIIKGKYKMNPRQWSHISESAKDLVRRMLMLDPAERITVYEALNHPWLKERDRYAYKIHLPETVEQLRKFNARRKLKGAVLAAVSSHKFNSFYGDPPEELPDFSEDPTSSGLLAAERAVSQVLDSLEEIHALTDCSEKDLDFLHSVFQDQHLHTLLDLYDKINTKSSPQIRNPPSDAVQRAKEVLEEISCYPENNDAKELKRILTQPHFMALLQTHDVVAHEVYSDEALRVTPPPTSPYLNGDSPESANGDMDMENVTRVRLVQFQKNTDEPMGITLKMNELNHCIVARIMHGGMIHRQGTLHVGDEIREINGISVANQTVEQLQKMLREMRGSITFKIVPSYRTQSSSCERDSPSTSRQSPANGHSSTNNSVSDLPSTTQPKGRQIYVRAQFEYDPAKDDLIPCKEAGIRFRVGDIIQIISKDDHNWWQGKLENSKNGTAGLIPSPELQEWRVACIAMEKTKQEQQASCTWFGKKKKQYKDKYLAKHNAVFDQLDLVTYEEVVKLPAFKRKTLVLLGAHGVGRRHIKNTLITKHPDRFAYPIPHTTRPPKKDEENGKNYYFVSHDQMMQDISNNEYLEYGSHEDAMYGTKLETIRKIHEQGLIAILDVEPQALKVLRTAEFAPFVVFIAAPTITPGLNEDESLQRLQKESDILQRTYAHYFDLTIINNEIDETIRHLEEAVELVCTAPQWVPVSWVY
T34 sequence (Q96L34 whole entry): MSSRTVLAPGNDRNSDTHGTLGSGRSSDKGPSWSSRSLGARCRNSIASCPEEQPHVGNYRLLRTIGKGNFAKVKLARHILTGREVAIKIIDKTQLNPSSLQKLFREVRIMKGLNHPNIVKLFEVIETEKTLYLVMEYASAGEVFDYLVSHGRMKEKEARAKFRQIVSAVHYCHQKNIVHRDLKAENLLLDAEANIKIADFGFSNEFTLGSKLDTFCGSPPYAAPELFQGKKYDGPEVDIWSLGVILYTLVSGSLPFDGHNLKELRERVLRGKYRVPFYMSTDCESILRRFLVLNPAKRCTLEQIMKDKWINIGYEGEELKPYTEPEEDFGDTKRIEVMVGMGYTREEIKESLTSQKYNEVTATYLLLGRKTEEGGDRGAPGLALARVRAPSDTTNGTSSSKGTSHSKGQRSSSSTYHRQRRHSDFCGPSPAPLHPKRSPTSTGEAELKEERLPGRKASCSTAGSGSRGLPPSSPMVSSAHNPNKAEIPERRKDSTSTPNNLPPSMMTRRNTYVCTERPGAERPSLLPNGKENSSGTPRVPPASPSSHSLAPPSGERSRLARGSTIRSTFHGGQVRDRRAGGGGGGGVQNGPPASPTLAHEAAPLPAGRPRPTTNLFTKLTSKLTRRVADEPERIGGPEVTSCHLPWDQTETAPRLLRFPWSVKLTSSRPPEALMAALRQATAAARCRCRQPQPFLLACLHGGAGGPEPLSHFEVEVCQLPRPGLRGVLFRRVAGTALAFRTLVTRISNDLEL
T16 sequence (P49137 whole entry): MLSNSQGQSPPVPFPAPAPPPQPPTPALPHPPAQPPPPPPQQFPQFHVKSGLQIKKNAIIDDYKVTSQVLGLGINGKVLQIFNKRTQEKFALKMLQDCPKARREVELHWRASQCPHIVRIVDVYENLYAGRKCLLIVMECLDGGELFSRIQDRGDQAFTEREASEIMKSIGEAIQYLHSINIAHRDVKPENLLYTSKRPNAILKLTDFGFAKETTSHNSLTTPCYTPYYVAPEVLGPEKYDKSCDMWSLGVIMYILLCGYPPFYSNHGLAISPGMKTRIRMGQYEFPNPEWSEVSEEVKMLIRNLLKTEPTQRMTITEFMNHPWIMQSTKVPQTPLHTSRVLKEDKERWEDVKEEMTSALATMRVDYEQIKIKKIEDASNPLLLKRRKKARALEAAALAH

## CCN(C(=O)CO)[C@H]1CN(/C(=N\C#N)Nc2cccc(OC(F)F)c2)N=C1c1ccc(Cl)c(Cl)c1 [(S)-4]
[1]
  remaining binding at 1 µM: 100%
[2]
  remaining binding at 1 µM: 91%
[3]
  remaining binding at 1 µM: 84%
[4]
  remaining binding at 1 µM: 100%
[5]
  remaining binding at 1 µM: 79%
[6]
  remaining binding at 1 µM: 100%
[7]
  remaining binding at 1 µM: 94%
[8]
  remaining binding at 1 µM: 61%
[9]
  remaining binding at 1 µM: 46%
[10]
  remaining binding at 1 µM: 100%
[11]
  remaining binding at 1 µM: 90%
[12]
  remaining binding at 1 µM: 96%
[13]
  remaining binding at 1 µM: 98%
[14]
  remaining binding at 1 µM: 77%
[15]
  remaining binding at 1 µM: 73%
[16]
  remaining binding at 1 µM: 91%
[17]
  remaining binding at 1 µM: 85%
[18]
  remaining binding at 1 µM: 76%
[19]
  remaining binding at 1 µM: 100%
[20]
  remaining binding at 1 µM: 99%
[21]
  remaining binding at 1 µM: 93%
[22]
  remaining binding at 1 µM: 81%
[23]
  remaining binding at 1 µM: 66%
[24]
  remaining binding at 1 µM: 100%
[25]
  remaining binding at 1 µM: 99%
[26]
  remaining binding at 1 µM: 100%
[27]
  remaining binding at 1 µM: 100%
[28]
  remaining binding at 1 µM: 100%
[29]
  remaining binding at 1 µM: 100%
[30]
  remaining binding at 1 µM: 100%
[31]
  remaining binding at 1 µM: 100%
[32]
  remaining binding at 1 µM: 93%
[33]
  remaining binding at 1 µM: 100%
[34]
  remaining binding at 1 µM: 75%
[35]
  remaining binding at 1 µM: 92%
[36]
  remaining binding at 1 µM: 74%
[37]
  remaining binding at 1 µM: 98%
[38]
  remaining binding at 1 µM: 95%
[39]
  remaining binding at 1 µM: 98%
[40]
  remaining binding at 1 µM: 100%
[41]
  remaining binding at 1 µM: 99%
[42]
  remaining binding at 1 µM: 91%
[43]
  remaining binding at 1 µM: 100%
[44]
  remaining binding at 1 µM: 100%
